Test results taken from ChEMBL document CHEMBL3870317, “FtsZ inhibition and redox modulation with one chemical scaffold: Potential use of dihydroquinolines against mycobacteria” (Eur J Med Chem, 2016).
≈ marks a conversion by molar mass, not a printed value. Calls of active or inactive are those of the source. The calls are words filed in the database; no cut-off is given here.

What was measured:
[1] = (§1) Inhibition of recombinant Mycobacterium tuberculosis FtsZ polymerization expressed in Escherichia coli assessed as inhibition of protofilament formation by measuring intensity of light scattering in presence of GTP by fluorescence spectrophotometry method
[2] = (§2) Inhibition of recombinant Mycobacterium tuberculosis FtsZ GTPase activity expressed in Escherichia coli assessed as inorganic phosphate release measured after 15 mins in presence of GTP using malachite green dye by fluorescence spectrophotometry
[3] = system: Mycolicibacterium smegmatis; assay: Antimycobacterial activity against Mycobacterium smegmatis MC2 155 measured after 48 hrs by resazurin dye-based MABA method; type: functional; settings: str. MC2 155, 48 h
[4] = system: Mycobacterium tuberculosis; assay: as §1
[5] = system: Mycobacterium tuberculosis; assay: as §2
[6] = system: Mycobacterium tuberculosis; assay: Inhibition of Mycobacterium tuberculosis FtsZ polymerization at 50 uM measured after 1 hr by sodium tungstate staining based transmission electron microscopic method
[7] = system: Mycolicibacterium smegmatis MC2 155; assay: Inhibition of recombinant Mycobacterium smegmatis MC2 155 FtsZ assessed as increase in cell length at 50 uM measured after 2 hrs by phase contrast microscopy relative to control
[8] = target: T1, Cell division protein FtsZ (Bacillus subtilis (strain 168)) (UniProt P17865); assay: Inhibition of recombinant Bacillus subtilis 168 FtsZ assessed as increase in cell length at 50 uM measured after 2 hrs by phase contrast microscopy relative to control; settings: Bacillus subtilis subsp. subtilis str. 168
T1 sequence (whole entry): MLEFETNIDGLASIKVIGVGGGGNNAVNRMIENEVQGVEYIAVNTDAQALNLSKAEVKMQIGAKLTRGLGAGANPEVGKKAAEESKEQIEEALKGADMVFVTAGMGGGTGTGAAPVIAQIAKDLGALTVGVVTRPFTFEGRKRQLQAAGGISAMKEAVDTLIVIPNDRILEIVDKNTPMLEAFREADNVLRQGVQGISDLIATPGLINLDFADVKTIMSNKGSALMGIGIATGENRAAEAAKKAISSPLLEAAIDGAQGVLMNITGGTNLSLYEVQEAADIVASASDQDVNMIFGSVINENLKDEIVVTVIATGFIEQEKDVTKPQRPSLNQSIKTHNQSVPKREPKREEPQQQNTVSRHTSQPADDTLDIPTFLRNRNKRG

[9] = system: Mycobacterium tuberculosis; assay: Inhibition of recombinant Mycobacterium tuberculosis FtsZ expressed in Escherichia coli assessed as inhibition of protofilament formation by measuring intensity of light scattering at 400 nM up to 300 sec in presence of GTP by fluorescence spectrophotometry
[10] = target: T1, Cell division protein FtsZ (Bacillus subtilis (strain 168)); assay: Binding affinity to Bacillus subtilis 168 FtsZ assessed as effect on Z-ring assembly at 100 uM by FITC-staining based immunofluorescence microscopic method; settings: Bacillus subtilis subsp. subtilis str. 168
[11] = system: Mycobacterium tuberculosis; assay: Displacement of ANS from recombinant Mycobacterium tuberculosis FtsZ expressed in Escherichia coli assessed as red shift at 20 to 140 uM after 30 mins by fluorescence analysis
[12] = Displacement of ANS from recombinant Mycobacterium tuberculosis FtsZ expressed in Escherichia coli by double reciprocal plot analysis
[13] = system: Bacillus subtilis; assay: Induction of ROS generation in Bacillus subtillis 168 assessed as DCF release at 25 to 50 uM measured after 1 hr by DCFH-DA based fluorescence microscopy; type: functional; settings: subsp. subtilis str. 168
[14] = system: Mycolicibacterium smegmatis; assay: Induction of ROS generation in Mycobacterium smegmatis MC2 155 assessed as release of DCF at 25 to 50 uM measured after 1 hr by DCFH-DA based fluorescence spectrophotometry; type: functional; settings: str. MC2 155
[15] = system: Mycobacterium tuberculosis; assay: Inhibition of recombinant Mycobacterium tuberculosis FtsZ expressed in Escherichia coli assessed as inhibition of protofilament formation by measuring intensity of light scattering at 400 nM after 1000 sec in presence of GTP by fluorescence spectrophotometry
[16] = system: Mycobacterium tuberculosis; assay: Inhibition of recombinant Mycobacterium tuberculosis FtsZ GTPase activity expressed in Escherichia coli assessed as inorganic phosphate release at 50 uM measured after 15 mins in presence of GTP using malachite green dye by fluorescence spectrophotometry relative to control

| Compound | MIC [3] | IC50 ([1]; read-out: IC50) | IC50 ([2]; read-out: IC50) | further results |
| --- | --- | --- | --- | --- |
| COC(=O)C1=Cc2cc([N+](=O)[O-])ccc2N([C@@H](C)C(=O)OC)C1 | – | – | – | IC50 [1]: Nd(Insoluble); IC50 [2]: Nd(Insoluble) |
| CC(=O)C1=Cc2cc([N+](=O)[O-])ccc2N(Cc2ccccc2)C1 | 7.5 µg/mL (≈ 24.3 µM) | > 200 µM | > 200 µM | – |
| COC(=O)C1=Cc2cc([N+](=O)[O-])ccc2N(Cc2ccc3c(c2)OCO3)C1 | 0.95 µg/mL (≈ 2.58 µM) | 77.3 µM | 78.5 µM | inhibition [4]: Dose-dependent effect; inhibition [5]: Dose-dependent effect |
| COC(=O)C1=Cc2cc([N+](=O)[O-])ccc2N(Cc2ccccn2)C1 | 62.5 µg/mL (≈ 192 µM) | 194 µM | 186 µM | – |
| COC(=O)C1=Cc2cc([N+](=O)[O-])c(Cl)cc2N([C@@H](C)c2ccccc2)C1 | 15 µg/mL (≈ 40.2 µM) | 41.4 µM | 40 µM | inhibition [6]: Active |
| COC(=O)C1=Cc2cc([N+](=O)[O-])ccc2N(Cc2ccccc2)C1 | 31.5 µg/mL (≈ 97.1 µM) | 184 µM | 197 µM | – |
| CCN1CC(C(=O)OC)=Cc2cc([N+](=O)[O-])ccc21 | – | – | – | IC50 [1]: Nd(Insoluble); IC50 [2]: Nd(Insoluble) |
| O=C(O)C1=Cc2cc([N+](=O)[O-])ccc2N(Cc2ccccc2)C1 | 31.2 µg/mL (≈ 101 µM) | 95 µM | 86.6 µM | – |
| COC(=O)C1=Cc2cc([N+](=O)[O-])ccc2N([C@@H](CO)C(=O)OC)C1 | 7.5 µg/mL (≈ 22.3 µM) | 33.4 µM | 39 µM | fold change (FC) [7]: 4; fold change (FC) [8]: 6; inhibition [9]: Active; inhibition [4]: Dose-dependent effect; inhibition [5]: Dose-dependent effect; inhibition [6]: Active; Activity [10]: Active; inhibition [11]: Active; Kd [12]: 8.6 µM; Activity [13]: Active; Activity [14]: Active; inhibition [15]: Dose-dependent effect |
| CO[C@H]1/C=C/O[C@@]2(C)Oc3c(C)c(O)c4c(O)c(c(/C=N/N5CCN(C)CC5)c(O)c4c3C2=O)NC(=O)/C(C)=C\C=C\[C@H](C)[C@H](O)[C@@H](C)[C@@H](O)[C@@H](C)[C@H](OC(C)=O)[C@@H]1C [RIFAMPIN] | 1.75 µg/mL (≈ 2.13 µM) | – | – | – |
| COc1ccc2cc3[n+](cc2c1OC)CCc1cc2c(cc1-3)OCO2 | – | – | – | inhibition [16]: 79 to 80% |
| CC(C)c1c(O)ccc2c1CC[C@H]1C(C)(C)CCC[C@]21C | – | – | – | inhibition [16]: 73 to 74% |
| CN[C@@H]1[C@H](O[C@H]2[C@H](O[C@H]3[C@H](O)[C@@H](O)[C@H](N=C(N)N)[C@@H](O)[C@@H]3N=C(N)N)O[C@@H](C)[C@]2(O)C=O)O[C@@H](CO)[C@H](O)[C@H]1O [STREPTOMYCIN] | 3 µg/mL (≈ 5.16 µM) | – | – | – |
| CCCCN1CC(C(=O)OC)=Cc2cc([N+](=O)[O-])ccc21 | 7.5 µg/mL (≈ 25.8 µM) | > 200 µM | > 200 µM | – |
| COC(=O)C1=Cc2cc3ccccc3nc2N([C@@H](CO)C(=O)OC)C1 | 15 µg/mL (≈ 43.8 µM) | 61.5 µM | 66 µM | – |
| CC(C)(C)OC(=O)C1=Cc2cc([N+](=O)[O-])ccc2N(Cc2ccccc2)C1 | 7.5 µg/mL (≈ 20.5 µM) | > 200 µM | > 200 µM | – |
| CCN1CC(C(=O)OC)=Cc2cc(F)c(F)cc21 | 0.9 µg/mL (≈ 3.55 µM) | 210 µM | 196 µM | inhibition [4]: Dose-dependent effect; inhibition [5]: Dose-dependent effect |
| COCCCN1CC(C(=O)OC)=Cc2cc([N+](=O)[O-])ccc21 | 1.95 µg/mL (≈ 6.37 µM) | 88.6 µM | 89.3 µM | inhibition [4]: Dose-dependent effect; inhibition [5]: Dose-dependent effect |
| COC(=O)C1=Cc2cc([N+](=O)[O-])ccc2N(CCO)C1 | 3.9 µg/mL (≈ 14 µM) | 40.1 µM | 41.5 µM | – |
| C[C@H](c1ccccc1)N1CC(C(=O)O)=Cc2cc([N+](=O)[O-])ccc21 | 7.5 µg/mL (≈ 23.1 µM) | 40.9 µM | 25.3 µM | inhibition [4]: Dose-dependent effect; inhibition [5]: Dose-dependent effect |
| COC(=O)C1=Cc2ccccc2N(S(=O)(=O)c2ccc(C)cc2)C1 | – | – | – | IC50 [1]: Nd(Insoluble); IC50 [2]: Nd(Insoluble) |
| CCN(CC)CCN1CC(C(=O)OC)=Cc2cc([N+](=O)[O-])ccc21 | 7.5 µg/mL (≈ 22.5 µM) | 34 µM | 38.3 µM | inhibition [4]: Dose-dependent effect; inhibition [5]: Dose-dependent effect |
